Laboratory results taken from patent publication US20030092603A1, “Identification of specific modulators of bone formation” (priority 2001, published 2003).
Peptide text beside a SMILES is read from it. * marks the point of attachment. Cbz = O=C(OCc1ccccc1)*

What was measured:
Smad1 = experiment: Smurf1-induced Smad1 degradation in C2C12 cells transfected with Smad1 and Smurf1; assay type: cell-based; details: 24 h
Method: Effects of proteasome inhibitors on steady-state levels of Smad1 protein were examined in C2C12 cells. C2C12 cells were plated in 6-well culture plates at density of 2×10^5 cells/well and cultured with DMEM supplemented with 10% FCS for 24 h. The cells were then transfected with Smad1 and Smurf1 expression plasmids. 24 h after transfection, the cells were treated with different proteasome inhibitors at different concentrations and incubated for additional 24 h.

endogenous Smad1 = experiment: Steady-state levels of endogenous Smad1 in C2C12 cells, Western blot; assay type: cell-based; details: 24 hours, vs control
Method: To determine the effects of proteasome inhibitors on the steady-state levels of endogenous Smad1 protein, C2C12 cells were plated in 6-well culture plates (2×10^5 cells/well) and cultured with DMEM supplemented with 10% FCS. 24 h later, proteasome inhibitors lactacystin (10 μM), MG-132 (2.5 and 5 μM), PS-1 (25 and 50 nM) were added into C2C12 cells. The cells were cultured with the proteasome inhibitors for 24 hours and then the cell lysates were extracted. The steady-state levels of endogenous Smad1 were analyzed by Western blot using Smad1 antibody (Santa Cruz).

[1] = test system: murine BMP-2 promoter (−2712/+165); experiment: BMP-2 promoter-luciferase assay in stably transfected 2T3 cells; assay type: cell-based
Method: (§1) 2T3 murine osteoblast precursor cells and MG-63 human osteoblastic cells were cultured with α minimal essential medium (αMEM) supplemented with 10% fetal calf serum (FCS).
The cells were plated in 96-well culture plates and cultured for 24 h. The cells were then treated with different proteasome inhibitors or other compounds for additional 24 h. The cell lysates were extracted and luciferase activities were measured by a luciferase assay kit (Promega, Madison, Wis.) using a Luminometer.

BMP-2 mRNA = BMP-2 mRNA expression, Northern blot, MG-63 cells; assay type: cell-based; details: cultured human MG-63 osteoblastic cells
Method: as §1
(§2) MG-63 cells were plated in T-150 flasks at density of 2×10^6 cells per flask for RNA extraction. Total RNA was extracted from MG-63 cells using RNAzol B method (Tel-test Inc., Houston, Tex.). Enrichment of polyadenylated RNA was obtained using Stratagene oligo(dT) cellulose columns (Stratagene, San Diego, Calif.). 5 μg of poly (A^+) RNA was denatured in 2.2 M formaldehyde and 50% fornamide and run on an 1% agarose gel containing 2.2 M formaldehyde. The gels were transferred to a Nytran filter (Schleicher and Schuell, Keene, N.H.) by capillary blotting with 20× SSC (1× SSC=150 mM NaCl, 15 mM Na Citrate, pH 7.0). The RNA was then cross-linked to the filter by UV irradiation (Stratalink, Stratagene, San Diego, Calif.). Prehybridization was carried out at 56° C. in 5× SSC containing 50% formamide and 150 μg/ml of denatured salmon sperm DNA. After 1-2 h prehybridization, the DNA probes were added to the hybridization solution at a concentration of 5×10^5 cpm/ml. Hybridization was carried out for 15 h at 56° C. […] The filters were dried at room temperature, exposed at −70° C. overnight and then quantitated in cpm using an AMBIS Image Acquisition and Analysis System (AMBIS, San Diego, Calif.).

BMP-4 mRNA = BMP-4 mRNA expression, MG-63 cells; assay type: cell-based; details: cultured human MG-63 osteoblastic cells
Method: as §1, §2

BMP-2 protein = BMP-2 protein production by ELISA, MG-63 cell lysates; assay type: cell-based; details: cultured human MG-63 osteoblastic cells, 24 h
Method: MG-63 cells were plated in 12-well culture plates at the density of 2.5×10^5 cells/well and cultured with αMEM supplemented with 10% FCS for 24 h. The cells were treated with the proteasome inhibitors epoxomicin and PSI for 24 h. After incubation, the cell lysates were extracted with 150 μl lysis buffer (50 mM TrisHCl pH 8.0, 150 mM NaCl, 1% NP40) with protease inhibitors. The lysates were used to measure the BMP-2 protein production by ELISA.
For protein production, 96-well Dynatech white plates were coated with mouse anti-hBMP-2 monoclonal antibody (raised against rhBMP-2) at 1 μg/ml in PBS (100 μl/well) and incubated overnight at 4° C. The following procedures were performed at room temperature. The plates were washed 3 times with 300 μl of PBS-T wash buffer (PBS and 0.05% Tween) and then blocked with 300 μl 0.2% I-Block solution (0.2% I-Block in PBS-T, Applied Biosystems) for 2 h. 100 μl cell lysates were then added and incubated with coated antibody for 2 h. […] After 3 time washing with wash buffer and 3 time washing with assay buffer, the plates were incubated with 100 μl Tropix enzyme substrate (Applied Biosystems) in dark for 10 min and then read light emission with a Luminometer. rhBMP-2 (R&D) was used to generate the standard curve.

[2] = test system: neonatal murine calvarial bones; experiment: Organ culture of neonatal murine calvarial bones, bone formation; assay type: cell-based, ICR Swiss mice; details: for effect on osteoblast differentiation and bone formation after transfection of trGli3: calvariae transfected with trGli3, epoxomicin 20 nM, 3 days, histology
Method: Organ cultures of neonatal murine calvarial bones were used as described by Traianedes, K., et al., Endocrinology (1998) 139:3178-3184. Bones were removed from the calvaria of 4-5 day old ICR Swiss mice and cultured in BGJ medium with 0.1% BSA for 72 hours together with test compounds. Mouse noggin/FC chimera was purchased from R&D Systems, Stillwater, Minn., and added at 2 μg/ml.
Neonatal murine calvariae were transfected with either empty vector or truncated Gli3 (trGli3) using lipofectamine plus reagents for the first 24 hours and then treated with epoxomicin (20 nM) for the remaining 3 days of the assay according to Traianedes, et al., 1998 (supra).

Gli3 = Gli3 processing in 293 cells transfected with Flag-Gli3, Western blot; assay type: cell-based, human; details: for band of short form Gli3^85: FIG. 2a
Method: (§3) Full-length human Gli3 expression plasmid (pact-Flag-Gli3) was kindly provided by Dr. Shunsuke Ishii (Dai, P., et al., J. Biol. Chem. (1999) 274:8143-8152). The molecular weights for expressed Gli3 proteins by transfection of full-length Gli3 cDNA is about 190 kd (Gli3^190) and the processed form of Gli3 is about 85 kd (Gli3^85).
293 cells were plated in 6-well culture plates and cultured with Dulbecco's modified Eagle's medium (DMEM, Sigma). 24 hours after plating, the cells were transiently transfected with Flag-Gli3 cDNA (1 μg/well) and treated with 3-isobutyl-1-methylxanthine (IBMX, 200 μM) in the presence or absence of 1, 10 and 100 nM epoxomicin or PS-1. The steady-state protein levels of Gli3 precursor protein (Gli3^190) or processed form of Gli3 (Gli3^85) were detected by Western blot using anti-Flag antibody.

[3] = test system: Gli3 precursor protein (Gli3^190); experiment: Gli3 precursor (Gli3^190) degradation in C3H10T1/2 cells, Western blot; assay type: cell-based, mouse; details: IBMX 200 μM
Method: as §3
C3H10T1/2 multipotent progenitor cells were cultured with RPMI […] medium. The medium was purchased from Sigma (St. Louis, Mo.) and supplemented with 10% fetal calf serum (FCS). C3H10T1/2 cells were plated in 6-well culture plates at the density of 2×10^5 cells/well and transfected with Flag-Gli3 (2 μg/well) and treated with IBMX (200 μM) in the presence or absence of 10 and 20 nM of epoxomicin. Gli3^190 protein expression was detected by Western blot using anti-Flag antibody.

[4] = noggin 2 μg/ml, 72 hours culture

## CC(C)C[C@@H](C=O)NC(=O)[C@H](CC(C)C)NC(=O)[C@H](CC(C)C)NC(=O)OCc1ccccc1 [MG-132] (Cbz-Leu-Leu-Leu-aldehyde)
Smad1; C2C12 cells, 5 μM
  Smurf1-induced Smad1 degradation: partially or completely reversed
Endogenous Smad1; 5 μM
  increase of endogenous Smad1 protein level: 6.5 fold

## CC[C@H](C)[C@H](NC(=O)[C@H]([C@@H](C)CC)N(C)C(C)=O)C(=O)N[C@H](C(=O)N[C@@H](CC(C)C)C(=O)[C@@]1(C)CO1)[C@@H](C)O [epoxomicin]
[1]
  potency as stimulators of BMP-2 expression compared with the statins: considerably more potent
[1]; treated 24 h
  luciferase activity (BMP-2 promoter): increased
BMP-2 mRNA
  BMP-2 mRNA expression: increased
BMP-4 mRNA
  expression of BMP-4 mRNA: no effect
BMP-2 protein
  BMP-2 protein expression: increased
[2]; 72 hours culture
  bone formation in calvarial cultures: bone stimulating effects
[2]
  effect on osteoblast differentiation and bone formation after transfection of trGli3: impaired markedly
Gli3; 1 nM epoxomicin
  band of short form Gli3^85: substantially reduced
Gli3; 10 nM epoxomicin
  band of short form Gli3^85: abolished
Gli3; IBMX 200 μM
  Gli3 processing to its processed shorter form: impaired
[3]
  degradation of Gli3 precursor protein (Gli3^190): prevent the degradation
Smad1; C2C12 cells, 10, 20 and 40 nM, FIG. 5c
  Smurf1-induced Smad1 degradation: partially or completely reversed

## CC(=O)N[C@@H](CSC(=O)[C@]1([C@@H](O)C(C)C)NC(=O)[C@H](C)[C@@H]1O)C(=O)O [lactacystin]
Smad1; C2C12 cells, 10 μM
  Smurf1-induced Smad1 degradation: partially or completely reversed
Endogenous Smad1; 10 μM
  increase of endogenous Smad1 protein level: 3.7 fold

## aFGF: acidic fibroblast growth factor, unrelated anabolic agent
[2]; 72 hours culture
  bone formation in calvarial cultures: bone formation stimulated
[2]
  effect on osteoblast differentiation and bone formation after transfection of trGli3: no effect

## noggin
[2]; [4]
  effect of noggin on bone formation stimulated by aFGF: no effect
  effect of noggin on bone stimulating effect of BMP-2: inhibited
  effect of noggin on bone stimulating effect of PS-1: inhibited
  effect of noggin on bone stimulating effect of epoxomicin: inhibited
